Results reported in patent publication US8518372B2, “Coronin 1 modulators for the treatment of autoimmune and Lymphoproliferative disorders and mycobacterial infections” (priority 2006, dated 2013).
Read-outs that look alike come from different tables or passages of the source.

Key:
macrophages [1] = experiment: Macrophage viability
macrophages [2] = experiment: Protein synthesis in macrophages; type: cell-based, mice
Mycobacterium bovis BCG = type: cell-based
[3] = tested on: M. bovis BCG in bone marrow derived macrophages; type: cell-based, mice; conditions: for lysosomal delivery of mycobacteria: infection 1 h, chase 3 h
mycobacteria = experiment: Bacterial proliferation in presence or absence of calcineurin inhibitors; type: cell-based; conditions: FIG. 10h
[4] = tested on: bone marrow derived macrophages; experiment: Calcium fluorimetry (Fluo3) in macrophages; type: cell-based, mice; conditions: Fluo-3, FIG. 10a

With `C[C@@H]1C[C@@H]([C@H](O)CC2CC(=O)NC(=O)C2)C(=O)[C@@H](C)C1` [cycloheximide] the macrophage viability (macrophages [1]) was “without compromising macrophage viability”, the protein synthesis (macrophages [2]) was “efficiently blocked protein synthesis” and the survival of mycobacteria (Mycobacterium bovis BCG) was “did not result in alteration”. The “intracellular routing of mycobacteria” value [3] was “did not result in alteration”.

With `C=CC[C@@H]1/C=C(\C)C[C@H](C)C[C@H](OC)[C@H]2O[C@@](O)(C(=O)C(=O)N3CCCC[C@H]3C(=O)O[C@H](/C(C)=C/[C@@H]3CC[C@@H](O)[C@H](OC)C3)[C@H](C)[C@@H](O)CC1=O)[C@H](C)C[C@@H]2OC` [FK506, tacrolimus] the bacterial proliferation (mycobacteria) was “identical in the presence or absence”, the “survival of mycobacteria within macrophages” value (Mycobacterium bovis BCG; wild type bone marrow derived macrophages, calcineurin inhibitor present, FIG. 10h) was “unable to survive within macrophages” and the “lysosomal delivery of mycobacteria” value ([3]; FK506 0.5 μM, FIG. 10g) was “complete relocation of mycobacteria to lysosomes”.

With `C[C@H](CCC(=O)O)C[C@H](C)C[C@H](C)C(=O)/C=C(\O)[C@H](C)C[C@H](C)C/C=C/[C@@H](C)[C@@H](O)[C@@H](C)[C@@H](O)C[C@@H]1CC[C@@](C)([C@H]2CC[C@@](C)([C@@H](C)O)O2)O1` [ionomycin] the “cytosolic Ca2+ flux upon stimulation” value ([4]; coronin 1 deficient macrophages) was “no Ca^2+ flux was observed” and the “cytosolic Ca2+ flux upon stimulation” value ([4]; macrophages from wild type mice) was “accompanied with a flux of cytosolic Ca^2+”.

`CC(=O)OCOC(=O)CN(CC(=O)OCOC(C)=O)c1ccccc1OCCOc1ccccc1N(CC(=O)OCOC(C)=O)CC(=O)OCOC(C)=O` [BAPTA-AM] was tested, and the “survival of mycobacteria within macrophages” value (Mycobacterium bovis BCG; BAPTA-AM present, FIG. 10e) was “killed” and the “lysosomal delivery of mycobacteria” value ([3]; BAPTA-AM 1 μM, FIG. 10c,d) was “virtually all mycobacteria were transported to lysosomes”.
